These results are taken from publication PMC4741889, “Ligand-based chemoinformatic discovery of a novel small molecule inhibitor targeting CDC25 dual specificity phosphatases and displaying in vitro efficacy against melanoma cells” (Oncotarget, 2015).

In one assay the test system is CDC25C protein levels. The experiment in a line: Western blotting of CDC25C protein levels in SAN cells. Particulars: 100 μM, 1, 2 or 4 h. Type of assay: cell-based, human. On the technique in general: In western blotting, separated proteins are transferred to a membrane and probed.
The next assay concerns SAN cells. The experiment in a line: Intracellular ROS level (DCFH-DA), SAN cells. Type of assay: cell-based, human. Particulars: SAN, then 100 μM 7 for 4 h. Here is the method: The high redox reactivity of quinonoid molecules, like compound 7, could greatly perturb the intracellular redox state. […] The oxidant effect of 7 was also evaluated after cell pre-treatment with two antioxidant molecules, such as N-acetyl-cysteine (NAC) and the specific inhibitor of NADPH oxidase, apocynin. To this aim, A2058 and SAN cells were pre-incubated for 1 h with 10 mM NAC or 45 min with 0.5 mM apocynin and then treated for 4 h with 100 μM compound 7. […] The cytotoxic activity of 7 could be mediated by the observed increase of ROS level.
The intracellular ROS level was monitored using the oxidation-sensitive fluorescence probe DCFH-DA. Cells were seeded into 6-well-plates (3 × 10^5 cells/plate) for 24 h at 37°C and then treated at various times with 100 μM compound 7 or 0.5% DMSO. DCFH-DA was added in the dark at 10 μM final concentration 30-min before the end of each incubation; then, cells were collected, washed in PBS, and finally resuspended in 500 μL PBS for fluorimetric analysis. Measurements were realized in a Cary Eclipse fluorescence spectrophotometer (Varian); excitation and emission wavelengths were set at 485 nm and 530 nm, respectively; both excitation and emission slits were set at 10 nm. The effect of 7 on ROS production was also estimated after pretreatment of cells with 10 mM NAC for 1 h.
Supplementary Figure S5: ROS production and their involvement in the apoptotic process of SAN cells, as induced by treatment with compound 7. A. Time-dependent measurement of ROS production. Cells were incubated with 0.5% DMSO (open bars) or 100 μM compound 7 (black bars) and then the intracellular ROS level was measured. B. Effect of antioxidant molecules on ROS production. The ROS level was also measured in cells untreated or pretreated with NAC or apocynin after a 4-h incubation with DMSO or 7. C. Effect of NAC on apoptosis. The PI incorporation was evaluated in cells untreated or pretreated with NAC after a 48-h incubation with DMSO or 7. ROS production was expressed as a.u., and apoptosis as a percentage. […]

The next assay relates to caspase-9 activity. The experiment in a line: Caspase-9 enzymatic activity in A2058 cells. In kind it is cell-based, human. Particulars: A2058, 100 μM, 24 h. The method, then: Mitochondria represent the primary source of ROS, as well the target of ROS action, and therefore, compound 7 could affect their functionality in melanoma cells. […] Proteins belonging to the B-cell lymphoma-2 (Bcl-2) family are involved in the modulation of the mitochondrial functionality. Therefore, we have evaluated the levels of the anti-apoptotic protein Bcl-2, as well as that of the pro-apoptotic Bcl-2-associated X protein (Bax), after incubation with 7 (Figure 10B). […] To further investigate the occurrence of a mitochondrial-mediated apoptosis induced by 7, the caspase-9 activity was assayed. […] The effect of compound 7 was investigated also in SAN cells and the overall results were similar to those observed in A2058 (Supplementary Figure S6).
To estimate caspase-3 and caspase-9 activity during the treatment with compound 7, the respective enzymatic activities were measured by using caspase-3 and -9 fluorimetric assay kits, according to the manufacturer's protocol, essentially as previously described. Briefly, cells were seeded into 75 cm^2 plates (2 × 10^6 cells/plate) for 24 h at 37°C and then treated with 100 μM 7 or 0.5% DMSO. […] Cell lysates were incubated with 50 μM DEVD-AFC or LEHD-AFC substrates at 37°C for 2 h, to detect caspase-3 or caspase-9 activity, respectively, using a Cary Eclipse fluorescence spectrophotometer (Varian). […]

The subject of a further assay is caspase-3 activity. Kind of assay: Caspase-3 enzymatic activity in A2058 cells. Type of assay: cell-based, human. Conditions: A2058, 100 μM. From the text: PI incorporation followed by flow cytometric analysis was used to detect the effect of 7 on the number of nuclei with a sub-diploid content, a typical hallmark of apoptosis. A time-dependent increase of apoptosis was evident in both A2058 and SAN cells and in particular, the effect of 7 on cell death program was already evident after 24-h treatment (Figure 7). […] To further investigate on the capacity of 7 to induce apoptosis, the enzymatic activity of caspase-3, the final effector of apoptotic program, was monitored.
To estimate caspase-3 and caspase-9 activity during the treatment with compound 7, the respective enzymatic activities were measured by using caspase-3 and -9 fluorimetric assay kits, according to the manufacturer's protocol, essentially as previously described. Briefly, cells were seeded into 75 cm^2 plates (2 × 10^6 cells/plate) for 24 h at 37°C and then treated with 100 μM 7 or 0.5% DMSO. At the end of each incubation, cells were collected, washed with PBS, and finally lysed at 4°C in the cell lysis buffer. Cell lysates were incubated with 50 μM DEVD-AFC or LEHD-AFC substrates at 37°C for 2 h, to detect caspase-3 or caspase-9 activity, respectively, using a Cary Eclipse fluorescence spectrophotometer (Varian). Excitation and emission wavelengths were set at 400 nm and 505 nm, respectively; both excitation and emission slits were set at 10 nm.

Another assay has as its target T1, CDC25B (Homo sapiens, UniProt P30305).
T1 construct: Recombinant forms of the catalytic domains of CDC25A, -B and -C were obtained through the vectors pET28a-CDC25A-cd, pET28a-CDC25B-cd and pET28a-CDC25C-cd; made in house
T1 sequence (P30305 431-538 limits assumed): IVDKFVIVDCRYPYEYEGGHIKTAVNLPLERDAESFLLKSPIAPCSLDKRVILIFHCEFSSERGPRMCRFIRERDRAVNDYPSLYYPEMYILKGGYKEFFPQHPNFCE
Kind of assay: Ki from OMFP hydrolysis kinetics (Lineweaver-Burk), CDC25B. In kind it is biochemical. Particulars: 10 nM CDC25B, 1–25 μM OMFP; mean ± S.E. Here is the method:
To measure the inhibition constant (Ki) of the recombinant forms of CDC25A, -B and -C towards the various inhibitors, the affinity of the different forms of CDC25 towards OMFP was measured either in the absence or in the presence of fixed concentrations of the various inhibitors. The reaction mixture contained 20 nM CDC25A, or 10 nM CDC25B, or 40 nM CDC25C, and different concentrations of the various inhibitors in 500 μL final volume of 20 mM Tris-HCl, pH 7.8, 1 mM DTT. DMSO was used as vehicle control. The reaction started by the addition of 1–25 μM OMFP, and the rate of OMFP hydrolysis was measured as indicated before. The corresponding Lineweaver-Burk plots allowed the calculation of the KM for OMFP and of the Vmax of OMFP hydrolysis, expressed as a.u./minmax. […] The Ki values were obtained from the decrease of a.u./minmax in the presence of the inhibitor, according to the equation a.u./mimmax’ = a.u./mimmax/{1 + ([I]/Ki)}, where a.u./mimmax’ represents the Vmax measured in the presence of the concentration [I] of the inhibitor. The Ki values were obtained from at least three independent experiments and reported as mean ± S.E.

Structures are written as SMILES.

One may read the Ki as a dissociation constant, usually derived from enzyme kinetics or from competition with a known ligand. With `O=C(O)C1CCCCC1c1c2ccc(=O)cc-2oc2cc(O)ccc12` (stereo not drawn) [Compound 7, 2-(6-hydroxy-3-oxo-3H-xanthen-9-yl)cyclohexanecarboxylic acid], the CDC25C protein levels entry in the assay on CDC25C protein levels is reported as “earlier decrease of CDC25C protein levels”. In addition, the “increase of ROS level after apocynin pre-treatment” value with SAN cells (0.5 mM apocynin 45 min) is “did not prevent the increase of ROS level”. Further, the “increase of ROS level after NAC pre-treatment” value in the assay on SAN cells (10 mM NAC 1 h) is “prevented by the NAC treatment”. Besides, in the assay on caspase-9 activity, the caspase-9 activity entry is “clear increase of caspase-9 activity”. Besides, the caspase-3 enzymatic activity result in the assay with caspase-3 activity is given as “significant increase of the enzymatic activity of caspase-3”. The Ki at CDC25B was 780 ± 30 nM.
